Data set [1] concerns Staphylococcus aureus ATCC 29213. In words: antimicrobial serial microdilution, S. aureus. It is filed as cell-based. Conditions: Staphylococcus aureus, ATCC29213; serial microdilution, 37 °C, 24 h. A general note: Broth dilution looks for growth in wells or tubes with falling amounts of substance.
A further data set has as its system P. aeruginosa ATCC 27853. Briefly: antimicrobial serial microdilution, P. aeruginosa. The settings on record: Pseudomonas aeruginosa, ATCC27853, 37 °C, 24 h. It is filed as cell-based.
Data set [2] deals with Enterococcus faecalis ATCC 29212. Briefly: antimicrobial serial microdilution, E. faecalis. It is filed as cell-based. Conditions: Enterococcus faecalis, ATCC29212; serial microdilution, 37 °C, 24 h.
The test system of a further data set is RAW 264.7 cells. Briefly: cell viability, MTT dye assay. It is filed as cell-based, murine. The settings on record: RAW 264.7, exposure to 400 µM, 48 h. As to the method:
The specificity and selectivity for the pathogen target is a key point for any potential drug.
The medium was renewed once a week. The viability was determined using MTT (thiazolyl blue tetrazolium bromide) dye assay as described previously for leishmanicidal activity assessment, with some variations. Here, 5 × 10^4 cells/well in a final volume of 100 µL were deposited into a 96-well plate in triplicate. Saponin (2 and 4 mg/mL) and untreated cells were used as the positive control and negative control, respectively. Schiff bases were dissolved in DMSO to obtain different serial concentrations (0.01–2000 µM). […] Cells were pelleted by centrifugation at 4400 rpm for 10 minutes and the media was removed. Next, 100 µL/well of DMSO were added and the absorbance at 570 nm was recorded. A reference wavelength of 630 nm was used for background subtraction.

Data set [3] concerns S. cerevisiae wild type (BY4741). Briefly: growth inhibition (OD600) of wild-type yeast, oxidative effect. It is filed as cell-based, Saccharomyces cerevisiae. How it is done: Next, we wanted to evaluate the oxidative activity. To do this, drop test assays were performed with wild-type (W303 and BY4741 backgrounds) and sod1 (BY4741 background) yeast cells in the presence of 200 µg/mL of the analyzed Schiff bases (Figure 3). The SOD1 gene encodes superoxide dismutase 1, an enzyme with a major role in detoxifying ROS species generated during metabolism or because of environmental exposure. sod1 mutant cells are unprotected against oxidative agents, decreasing survival in their presence.
(A) Drop test of serial dilution of yeast cell cultures (wild type from genetic background W303, wild type from genetic background BY4741, and sod1 mutant from genetic background BY4741) exposed to Schiff bases at 200 µg/mL. A control without drug and with 2% DMSO are included.
The bacterial inoculum was prepared by emulsifying overnight colonies from an agar medium in broth (Mueller–Hinton broth). The suspensions were adjusted to a final organism density of 5 × 10^5 colony former units (cfu)/mL. […] The emulsifying of A. niger cultures was done by pouring 5 mL of saline and 0.1% of polysorbate 80 over the Petri dishes. Then, 100 µL of this suspension were diluted in 5 mL of saline and adjusted to an optical density of 0.1 at 530 nm. For S. cerevisiae, fresh exponential YPAD (yeast extract 1%, peptone 2%, adenine 0.004%, […]) cultures were adjusted to an optical density of 0.5 at 600 nm, and then diluted to the equivalent of 1 × 10^4 cells/mL (10^−3 dilution). Stock solutions of Schiff bases were prepared by dissolving them in DMSO at 10 mg/mL. […] The range of concentrations used was empirically selected for each organisms and the Schiff base. Drug sensitivities were assayed by serial dilutions in 96-well plates as previously described. A row with media and cells but without drug was the positive control. The blank was done by preparing a row with media and drugs, but without cells. Plates were fitted with a tight lid before incubation to prevent desiccation. […] The minimum bactericidal concentration (MBC) and fungicidal concentration (MFC) were determined by spreading 100 µL of culture from each well onto a plate (Mueller–Hinton agar for bacteria, Sabouraud dextrose agar for fungi except S. cerevisiae, and YPAD for S. cerevisiae).

The test system of data set [4] is Escherichia coli ATCC 25922. In words: antimicrobial serial microdilution, E. coli. It is filed as cell-based. Conditions: serial microdilution, 37 °C, 24 h.
The test system of data set [5] is S. cerevisiae (backgrounds W303 and BY4741). Briefly: antimicrobial serial microdilution, S. cerevisiae. It is filed as cell-based, Saccharomyces cerevisiae. Conditions: Saccharomyces cerevisiae; serial microdilution, 35 °C, 48 h; read-out: MIC S. cerevisiae.
Data set [6] has as its system S. cerevisiae sod1 mutant cells (background BY4741). In words: drop test, sod1 mutant yeast. It is filed as cell-based, Saccharomyces cerevisiae. Conditions: 200 µg/mL, 48 h, 25 °C, compared to control. As to the method: (§1) Next, we wanted to evaluate the oxidative activity. To do this, drop test assays were performed with wild-type (W303 and BY4741 backgrounds) and sod1 (BY4741 background) yeast cells in the presence of 200 µg/mL of the analyzed Schiff bases (Figure 3). The SOD1 gene encodes superoxide dismutase 1, an enzyme with a major role in detoxifying ROS species generated during metabolism or because of environmental exposure. sod1 mutant cells are unprotected against oxidative agents, decreasing survival in their presence. […] Also, wild-type cells are shown as control, unaffected by the Schiff bases.
(§2) For the drop test with S. cerevisiae, wild-type strain (background W303), and wild type and sod1 mutant cells (background BY4741) were grown overnight in YPAD media until an optical density of 0.5 at 600 nm was reached (equivalent to 1 × 10^7 cells/mL). Three serial dilutions were prepared and 5 µL of each was spotted onto a plate (approximately 1 × 10^5, 1 × 10^4, 1 × 10^3, and 1 × 10^2 cells/spot). YPAD plates were supplemented with 200 µg/mL of each Schiff base, and one plate supplemented with 2% DMSO and one plate with YPAD without any drug were used as controls. Plates were incubated at 25 °C for 24, 48, and 72 h.

In data set [7] the test system is Candida albicans ATCC 10231. Briefly: antimicrobial serial microdilution, C. albicans. The settings on record: serial microdilution, 35 °C, 48 h. It is filed as cell-based.
Data set [8] deals with Aspergillus niger ATCC 6275. Briefly: antimicrobial serial microdilution, A. niger. It is filed as cell-based. The settings on record: Aspergillus niger, ATCC6275; serial microdilution, 96-well plates, 35 °C, 48 h, max 2% DMSO.
The test system of data set [9] is S. cerevisiae wild-type (W303 and BY4741 backgrounds). In words: drop test, wild-type yeast. It is filed as cell-based, Saccharomyces cerevisiae. The settings on record: 200 µg/mL, 48 h, 25 °C. As to the method:
Since the Schiff bases have a limited solubility in dimethyl sulfoxide (DMSO), first, we tested the toxicity of DMSO against the selected microorganism. […] Wild-type cells from W303 background seem to be more resistant, and sensitivity is observed at around 4% DMSO.
as §1, §2

Values after ≈ are worked out from the molar mass of the structure shown. Where only a bound is given, the exact number is not on record here.

Consider `Cc1c(N=Cc2ccccc2O)c(=O)n(-c2ccccc2)n1C` [Compound 3b, 4-(2-Hydroxybenzylideneamino)-1,5-dimethyl-2-phenyl-1H-pyrazol-3(2H)-one], for which the MIC in [1] is more than 200 µg/mL; in the data set with P. aeruginosa ATCC 27853 it was more than 200 µg/mL; in data set [2] it was more than 200 µg/mL; in data set [4] (Escherichia coli, ATCC25922), 49.8 ± 5 µg/mL (≈ 162 µM); in [5], more than 200 µg/mL; in data set [7] (Candida albicans, ATCC10231), 13.2 ± 1.6 µg/mL (≈ 42.9 µM). Further, the MIC in data set [8] is more than 200 µg/mL. For the same molecule, the “% Live Cells” value in the data set with RAW 264.7 cells was determined as 19.3 ± 0.2%. The IC50 is 192 µg/mL (≈ 625 µM) in data set [3] (Saccharomyces cerevisiae, unit inferred); 12.1 µg/mL (≈ 39.4 µM) in data set [4] (Escherichia coli, ATCC25922); 5.8 µg/mL (≈ 18.9 µM) in [7] (Candida albicans, ATCC10231). Moreover, the “NIC Wt” value in [3] (unit not given) came out at 178.0 ± 2.1. Further, the “MIC Wt” value in [3] (unit not given, in µg/mL) is reported as 208.2 ± 4.0. For the same molecule, in [4] (noninhibitory concentration), the “NIC E. coli” value came to 2.8 ± 0.5 µg/mL. Besides, in [6], the “sensitivity of sod1 cells in drop test” value is “sensitive”. Further, in data set [7] (noninhibitory concentration), the “NIC C. albicans” value stood at 3.0 ± 2.2 µg/mL. Besides, the “effect on wild-type cells in drop test” value in data set [9] is on record as “unaffected”.

One may read the MIC as the least concentration at which growth counts as inhibited. Usually IC50 stands for the concentration that inhibits the measured activity by half. Read a high IC50 as a need for much substance.

(Values after PMC6696115, “Characterization of Antimicrobial, Antioxidant, and Leishmanicidal Activities of Schiff Base Derivatives of 4-Aminoantipyrine” (Molecules, 2019).)
